From patent US20080076808A1, “SKIN COMPOSITION” (MARS INCORPORATED, priority 2003, published 2008)
Where two headings read alike, the source gives them in different places.

Key:
[1] = tested on: canine keratinocytes; assay: In vitro ceramide synthesis assay (14C-serine incorporation); type: cell-based; details: stated as 'has been shown'; FIGS. 2, 3, 7, 8
Description: Canine keratinocytes were obtained via explant culture of skin samples taken from healthy adult animals (4 mm biopsy). Samples are washed and dissected in cold PBS containing antibiotics. The epidermis is dissected away from the dermis and cut into 1 mm^2 pieces. The pieces of epidermis are then placed into individual wells of a 24 well collagen-coated plastic plate and briefly allowed to dry down (60 seconds). Green's medium supplemented with 10% fetal bovine serum is then added and the explants cultured for 7-10 days until keratinocytes begin growing out of the edges of the skin. The primary skin cells are now detached from the plastic and explant tissue using trypsin and moved onto a i3T3 (irradiated fibroblast) feeder layer. Cells are expanded on the feeder layer until near confluent at which time they can be moved onto plastic alone. The primary keratinocytes can be used for assays at this point or further expanded in number as required. Keratinocytes are seeded in collagen-coated 24 well plates at a density of 5×10^4 cells per well. These cells are allowed to settle overnight and then the media changed. Cells are then left for 4 days under proliferation promoting culture conditions (in the presence of bovine pituitary extract). Following the 4 days the media is changed to one that promotes differentiation and at this stage the supplement to be tested is added (see individual experiments). Following 6 days under these conditions [^14C]-Serine is added for the ceramide assay or [^14C]-Acetate added for the total lipid assay, in both cases at 0.5 microCi per well. Cells are incubated in the presence of the radioactive markers and supplement for 2 days. At the end of the incubation period cells were harvested using trypsin and washed using PBS. Lipids were subsequently extracted using Bligh-Dyer solution and then added to 4 ml of scintillation fluid. The radioactivity was counted with a liquid scintillation spectrometer. Results for the ceramide synthesis assays are seen in FIGS. 1-6. Results for total lipid synthesis assays are seen in FIGS. 7-8. […]

[2] = tested on: canine keratinocytes; details: stated as 'known to'; FIG. 5; cited from earlier work

| Structure (SMILES) | epidermal ceramide synthesis [1] | epidermal ceramide synthesis [2] |
| --- | --- | --- |
| N[C@@H](Cc1c[nH]cn1)C(=O)O [Histidine, histidine] | increase |  |
| NC(=O)c1cccnc1 [Nicotinamide, nicotinamide] | increase |  |
| O=C(O)[C@@H]1CCCN1 [Proline, proline] | increase |  |
| Cc1ncc(CO)c(CO)c1O [Pyridoxine, pyridoxine] |  | increase |
